Consider one compound from patent publication US8741338B2, “Targeted delivery to human diseases and disorders” (Universidade de Coimbra, priority 2008, dated 2014).

The test system of one test is HMEC-1 cells. In words: MTT proliferation assay, cytotoxicity of DXR formulations. Format: cell-based. Particulars: Homo sapiens, total 96 h. As for the experimental part: (§1) In vitro cytotoxicity of free doxorubicin (DXR) and DXR-containing liposomes was determined for […] and HMEC-1 cells using the MTT (3-(4,5-Dimethylthiazol-2-yl)-2,5-diphenyltetrazolium bromide) proliferation assay (Mosmann, 1983). Briefly, cells were plated in 96-well plates at a density of 8,000 cells per well and incubated with free DXR, non-targeted pH-sensitive (or non-pH-sensitve) liposomes containing DXR or targeted pH-sensitive (or non-pH-sensitve) liposomes containing DXR. Additional controls included free peptide and empty targeted liposomes. Cells were incubated for 1, 3, 24 and 48 h at 37° C. in an atmosphere of 95% humidity and 5% CO2. At the end of the incubation time, cells were gently washed twice with cold PBS to remove DXR and maintained in fresh medium for a total of 96 h. After incubation, the medium was replaced by a solution of 0.5 mg/ml MTT and the cells were further incubated for 4 h at 37° C. in an atmosphere of 95% humidity and 5% CO2. Crystals were dissolved in acidic isopropanol and absorbance in each well was read at 570 nm in a microplate reader (Multiscan EX—Thermo Electron Corporation). IC50 of DXR mediated by the different formulations was determined from the dose/response curves.

Another test deals with MDA-MB-435S cells. The test is described as above. Type of test: cell-based. Conditions: Homo sapiens, total 96 h. On the procedure: as §1

The structures appear in SMILES notation.

As to `COc1cccc2c1C(=O)c1c(O)c3c(c(O)c1C2=O)C[C@@](O)(C(=O)CO)C[C@@H]3O[C@H]1C[C@H](N)[C@H](O)[C@H](C)O1` [DXR, Doxorubicin], the IC50 (commonly the concentration needed to halve the response being measured) with HMEC-1 cells (HMEC-1, HMEC-1, 1 h incubation with drug) is 0.434 ± 0.03 µM; with HMEC-1 cells (HMEC-1, HMEC-1, 3 h incubation with drug) it was 0.401 ± 0.059 µM; in the test with HMEC-1 cells (HMEC-1, HMEC-1, 24 h incubation with drug), 0.072 ± 0.01 µM; in the test on HMEC-1 cells (HMEC-1, HMEC-1, 48 h incubation with drug), 0.058 ± 0.008 µM; in the test on MDA-MB-435S cells (1 h incubation with drug), 1.61 ± 0.46 µM; with MDA-MB-435S cells (3 h incubation with drug), 1.45 ± 0.27 µM. For the same compound, the IC50 in the test with MDA-MB-435S cells (24 h incubation with drug) amounted to 0.232 ± 0.045 µM; in the test with MDA-MB-435S cells (48 h incubation with drug), 0.113 ± 0.078 µM.
